Here are results for eight molecules from ChEMBL document CHEMBL1201862, “PubChem BioAssay data set” (2004).

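These data come from cells grown in 96-well plates and exposed to compound for 48 hours at five concentrations. GI50 marks 50% less growth.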 Activity calls are given as the source filed them. Cut-off read from the data, not from the text of the source: active = GI50 up to about 1.1 µM and inactive = higher. Bounds are passed on as bounds.

Among the test systems are 786-0; CAKI-1; COLO 205; DU-145; HT-29; LOX IMVI; M14; MCF7; MDA-MB-231; Malme-3M; NCI-H23; OVCAR-5; SF-295; SR; SW-620; T47D; PC-3; SK-OV-3; SNB-75.
Common to all, as to assay: NCI-60 cell line screen, 48 h

For the molecule `COc1ccc(N[S+]([O-])c2ccc(OC)cc2)cc1` (centres undefined), the GI50 in the assay with 786-0 was 84.9 µM (inactive); in the assay with CAKI-1, 52.7 µM (inactive); in the assay on COLO 205, 72.1 µM (inactive); in the assay on DU-145, 64.9 µM (inactive); with HT-29, 39.9 µM (inactive); in the assay with LOX IMVI it was 17.4 µM (inactive). For the same molecule, the GI50 in the assay on M14 was > 100 µM (inactive); with MCF7, 31.6 µM (inactive); in the assay on MDA-MB-231, 37.9 µM (inactive); with Malme-3M, 25.5 µM (inactive); in the assay with NCI-H23 it was > 100 µM (inactive); with OVCAR-5 it was > 100 µM (inactive). Further, the GI50 was 24 µM (inactive) in the assay on SF-295, 26.9 µM (inactive) in the assay on SR, 64.6 µM (inactive) in the assay on SW-620 and 15.5 µM (inactive) in the assay with T47D.
As for `COC(=O)C1=C(O)C(C(=O)OC)[C@]2(O)[C@@H](C(=O)OC)[C@H]1[C@H](C)[C@@H](c1ccccc1)[C@@H]2C(=O)OC` (some centres undefined), the GI50 in the assay on 786-0 is 62.2 µM (inactive); in the assay on CAKI-1, > 100 µM (inactive); in the assay with COLO 205 it was 77.3 µM (inactive); in the assay with DU-145, > 100 µM (inactive); with HT-29 it was > 100 µM (inactive); in the assay on LOX IMVI, 53.7 µM (inactive). Also, the GI50 in the assay on M14 was 88.1 µM (inactive); with MDA-MB-231, > 100 µM (inactive); in the assay with Malme-3M it was 42.2 µM (inactive); with NCI-H23, 44.4 µM (inactive); with OVCAR-5 it was > 100 µM (inactive); in the assay with PC-3 it was 61.5 µM (inactive). For the same molecule, the GI50 in the assay on SF-295 was 78.2 µM (inactive); in the assay on SK-OV-3, > 100 µM (inactive); with SNB-75, > 100 µM (inactive); in the assay with SW-620, 44.3 µM (inactive); in the assay with T47D, > 100 µM (inactive).
Consider `CCCCCCCCCCCNC=O`, for which the GI50 with 786-0 is > 100 µM (inactive); in the assay on CAKI-1, 33.3 µM (inactive); in the assay with COLO 205 it was 49.3 µM (inactive); in the assay on DU-145, 84.7 µM (inactive); in the assay on HT-29, 37.3 µM (inactive); in the assay with LOX IMVI, 51.9 µM (inactive). Moreover, the GI50 is 63 µM (inactive) in the assay with M14; 37.9 µM (inactive) with MCF7; 48.6 µM (inactive) with MDA-MB-231; 54 µM (inactive) in the assay with Malme-3M; 44.5 µM (inactive) in the assay with NCI-H23; 80.9 µM (inactive) in the assay with OVCAR-5. The GI50 in the assay with PC-3 was 23.9 µM (inactive); in the assay on SF-295, 36.9 µM (inactive); with SK-OV-3, 75.5 µM (inactive); with SNB-75, 50.8 µM (inactive); in the assay on SW-620, 48.3 µM (inactive); with T47D, 39.2 µM (inactive).
Consider `Cc1cc(Nc2ccc(NS(C)(=O)=O)cc2)c2c(ccc3[nH]ccc32)n1`, for which the GI50 in the assay with 786-0 is 20.4 µM (inactive); in the assay with CAKI-1, 29.5 µM (inactive); in the assay on COLO 205, 14.3 µM (inactive); in the assay on DU-145, 18.8 µM (inactive); in the assay on HT-29, 27.5 µM (inactive); in the assay on LOX IMVI it was 18.5 µM (inactive). For the same molecule, the GI50 was 16.6 µM (inactive) in the assay with M14; 7.4 µM (inactive) in the assay on MCF7; 16.4 µM (inactive) with MDA-MB-231; 12.5 µM (inactive) in the assay with Malme-3M; 20.7 µM (inactive) with NCI-H23; 26.2 µM (inactive) in the assay with OVCAR-5. Also, the GI50 in the assay on PC-3 was 20.4 µM (inactive); with SF-295 it was 22.3 µM (inactive); in the assay with SW-620 it was 21.7 µM (inactive); with T47D, 3.5 µM (inactive).
As for `CC(C)(C)OC(=O)n1c(Cl)c(C=O)c2ccccc21`, the GI50 is 21 µM (inactive) in the assay with 786-0; 17.2 µM (inactive) with CAKI-1; 56.4 µM (inactive) with COLO 205; 19.3 µM (inactive) with DU-145; 30.5 µM (inactive) in the assay with HT-29; 26.4 µM (inactive) in the assay on LOX IMVI. In addition, the GI50 is 34.8 µM (inactive) in the assay on M14; 33.3 µM (inactive) with MDA-MB-231; 19.1 µM (inactive) in the assay on Malme-3M; 23.3 µM (inactive) in the assay with NCI-H23; 35.5 µM (inactive) in the assay with OVCAR-5; 22 µM (inactive) in the assay with PC-3. In addition, the GI50 was 63.2 µM (inactive) in the assay on SF-295; > 100 µM (inactive) with SK-OV-3; 68.5 µM (inactive) in the assay with SNB-75; 31.2 µM (inactive) with SR; 36.2 µM (inactive) in the assay on SW-620; 30.6 µM (inactive) in the assay with T47D.
Turning to `O=c1c2cc(Br)ccc2oc2ccc(Br)cc12`, the GI50 in the assay on 786-0 is 64.7 µM (inactive); with CAKI-1, > 100 µM (inactive); in the assay with COLO 205 it was > 100 µM (inactive); in the assay with DU-145, 84.1 µM (inactive); with HT-29, > 100 µM (inactive); in the assay with M14, > 100 µM (inactive). Moreover, the GI50 with MCF7 is 27.5 µM (inactive); in the assay on MDA-MB-231, > 100 µM (inactive); in the assay with Malme-3M it was > 100 µM (inactive); in the assay on NCI-H23 it was > 100 µM (inactive); with OVCAR-5, > 100 µM (inactive); in the assay with PC-3, > 100 µM (inactive). Moreover, the GI50 was > 100 µM (inactive) with SF-295, 24.7 µM (inactive) with SNB-75, > 100 µM (inactive) with SW-620 and 81.3 µM (inactive) in the assay on T47D.
As for `O=C(NCCCN(CCCCN(CCCNC(=O)C(F)(F)F)CCCc1ccccc1)CCCc1ccccc1)C(F)(F)F`, the GI50 was 1.25 µM (inactive) in the assay with 786-0; 1.94 µM (inactive) in the assay with CAKI-1; 1.56 µM (inactive) with COLO 205; 2 µM (inactive) in the assay with DU-145; 1.55 µM (inactive) in the assay on HT-29; 1.85 µM (inactive) in the assay on LOX IMVI. The GI50 with M14 is 1.76 µM (inactive); with MCF7, 1.48 µM (inactive); with MDA-MB-231, 1.63 µM (inactive); in the assay on Malme-3M it was 1.75 µM (inactive); in the assay on NCI-H23, 12.7 µM (inactive); in the assay with OVCAR-5 it was 12.8 µM (inactive). Besides, the GI50 in the assay with SF-295 is 1.81 µM (inactive); with SK-OV-3 it was 2.49 µM (inactive); with SNB-75, 1.12 µM (active); in the assay with SW-620, 1.98 µM (inactive); with T47D, 1.85 µM (inactive).
As for `NS(=O)(=O)c1ccc(NS(=O)(=O)c2ccc(NC(=O)N(c3ccccc3)c3ccccc3)cc2)cc1`, the GI50 in the assay with 786-0 was 68.9 µM (inactive); in the assay on CAKI-1, 67 µM (inactive); in the assay on COLO 205, > 100 µM (inactive); with DU-145, 43.3 µM (inactive); in the assay on HT-29 it was 57.1 µM (inactive); in the assay on LOX IMVI, 34.4 µM (inactive). In addition, the GI50 with M14 was 41.3 µM (inactive); in the assay with MCF7, 52.7 µM (inactive); in the assay on MDA-MB-231 it was > 100 µM (inactive); in the assay on Malme-3M it was 27.3 µM (inactive); with NCI-H23 it was > 100 µM (inactive); in the assay with OVCAR-5, > 100 µM (inactive). Besides, the GI50 is 51.1 µM (inactive) in the assay on PC-3, 35.7 µM (inactive) with SF-295, > 100 µM (inactive) in the assay on SW-620 and 48 µM (inactive) in the assay on T47D.
